Test results as given in patent US20080279907A1, “Antimicrobial medical devices and methods for making and using same” (Ash Access Technology, Inc., priority 2007, published 2008).

What was measured:
[1] = Desorption of parabens from paraben impregnated polycarbonate catheter pieces in 0.24 M sodium citrate pH 6.2 (HPLC); format: physicochemical
Description: One inch polycarbonate catheter pieces including a surface area of about 4.64 cm^2 were impregnated with methyl paraben and propyl paraben. A solution of 100% 1,2-propanediol was prepared with 9% methyl paraben and 2% propyl paraben. Pairs of the one inch catheter pieces were placed into three 25 ml flasks including 10 ml of the 1,2-propanediol and paraben solution. The flasks including the catheter pieces were placed on a shaker at 220 rpm and 27° C. for two, four, or nine hour time periods. At the end of each time period, the catheter pieces were removed, rinsed with distilled water, and dried.
Desorption analysis of the paraben impregnated catheter pieces was performed in 0.24 M sodium citrate with a pH of 6.2. The total amount of either methyl paraben or propyl paraben released from the catheter pieces was calculated using HPLC analysis performed with a Waters Alliance 2690 including a 996 Photodiode Array Detector. Each calculation used a solution of HPLC grade H2O, methanol (MeOH), and acetonitrile (CAN) which were pre-filtered through a Millipore 0.45 μm nylon filter before use. Trifluoracetic acid (TFA) was added to H2O and acetonitrile (ACN) to 0.1%. A Waters Symmetry column (C8 3.9×150 mm, 5 μm) was applied with a Waters guard column (Waters, Sentry Guard column, Nova-Pak C18, 60A, 4 μm 3.9×20 mm).
A gradient of 67% H2O/33% ACN was used for 6.5 min, ramped to 45 %/55% from 6.5 to 7.0 min, and kept at 45%/55% until 15.0 min, at 15.0 min the concentration reverted to 67%/33%, and the system was run until 18 min. Injection volume for each sample was 10 μl and samples and column were run at ambient temperature.
Table 2 includes the graphical data represented in FIG. 8 and associated with the desorption of propyl paraben from the paraben impregnated catheter pieces prepared as discussed above. Again, the samples were impregnated only with parabens and desorbed in 10 ml 0.24 M Na-citrate, pH 6.2 over time.

[2] = Perfusion of parabens and methylene blue through polycarbonate membrane in perfusion chamber (HPLC of lower chamber); format: physicochemical
Description: An experiment was performed to determine a method for perfusing methylene blue, methyl paraben, and propyl paraben through a polycarbonate membrane with causing only minimal changes to the strength and elasticity of the membrane. In FIG. 12, there is illustrated a perfusion chamber system 50 used during the experiment. System 50 includes an upper chamber 51 and a lower chamber 52 separated by a polycarbonate membrane 53 having a thickness of 0.60 mm. The upper and lower chambers 51, 52 are generally structured to hold 10.5 cm^3 or 10.5 ml of fluid. The upper chamber 51 was connected to a peristaltic pump (not shown) and the lower chamber 52 was filled with distilled water. First and second solutions, respectively including the parabens and the methylene blue, were prepared in accordance with the method set forth in EXAMPLE 6 above. As best seen in Tables 6 and 7 below, the solutions were connected to the pump and passed through the first chamber 51 at a constant rate at 37° C. over various lengths of time.
Table 6 includes data obtained from HPLC analysis comparing the methyl paraben, propyl paraben, and methylene blue concentrations in the lower chamber 52. The parameters for the methyl and propyl paraben and methylene blue treatments are indicated in the left hand columns.

[3] = lower chamber, 20% PG/80% DI H2O (0.9% MP, 0.2% PP) ~9 hrs at 37 C., then MB ~10 days

SMILES: CCCOC(=O)c1ccc(O)cc1 [PP, propyl paraben]
- desorption by the end of the study ([1]; nearly 3 months, FIGS. 8 and 9): negligible desorption
- period of significant release ([1]; paraben impregnated catheter pieces, 0.24 M Na-citrate pH 6.2): 20 days
- Total PP released (mg)/1″ catheter ([1]; treatment 2 hrs (100% PG, 9% MP, 2% PP), time 1 hour): 0.048 mg/1″ catheter
- Total PP released (mg)/1″ catheter ([1]; treatment 2 hrs (100% PG, 9% MP, 2% PP), time 3 hours): 0.081 mg/1″ catheter
- Total PP released (mg)/1″ catheter ([1]; treatment 2 hrs (100% PG, 9% MP, 2% PP), time 7 hours): 0.121 mg/1″ catheter
- Total PP released (mg)/1″ catheter ([1]; treatment 2 hrs (100% PG, 9% MP, 2% PP), time 24 hours): 0.121 mg/1″ catheter
- Total PP released (mg)/1″ catheter ([1]; treatment 2 hrs (100% PG, 9% MP, 2% PP), time 4 days): 0.153 mg/1″ catheter
- Total PP released (mg)/1″ catheter ([1]; treatment 2 hrs (100% PG, 9% MP, 2% PP), time 5 days): 0.182 mg/1″ catheter
- Total PP released (mg)/1″ catheter ([1]; treatment 2 hrs (100% PG, 9% MP, 2% PP), time 6 days): 0.209 mg/1″ catheter
- Total PP released (mg)/1″ catheter ([1]; treatment 2 hrs (100% PG, 9% MP, 2% PP), time 8 days): 0.239 mg/1″ catheter
- Total PP released (mg)/1″ catheter ([1]; treatment 2 hrs (100% PG, 9% MP, 2% PP), time 11 days): 0.264 mg/1″ catheter
- Total PP released (mg)/1″ catheter ([1]; treatment 2 hrs (100% PG, 9% MP, 2% PP), time 13 days): 0.288 mg/1″ catheter
- Total PP released (mg)/1″ catheter ([1]; treatment 2 hrs (100% PG, 9% MP, 2% PP), time 15 days): 0.311 mg/1″ catheter
- Total PP released (mg)/1″ catheter ([1]; treatment 2 hrs (100% PG, 9% MP, 2% PP), time 18 days): 0.332 mg/1″ catheter
- Total PP released (mg)/1″ catheter ([1]; treatment 2 hrs (100% PG, 9% MP, 2% PP), time 22 days): 0.352 mg/1″ catheter
- Total PP released (mg)/1″ catheter ([1]; treatment 2 hrs (100% PG, 9% MP, 2% PP), time 29 days): 0.37 mg/1″ catheter
- Total PP released (mg)/1″ catheter ([1]; treatment 2 hrs (100% PG, 9% MP, 2% PP), time 36 days): 0.387 mg/1″ catheter
- Total PP released (mg)/1″ catheter ([1]; treatment 2 hrs (100% PG, 9% MP, 2% PP), time 50 days): 0.404 mg/1″ catheter
- Total PP released (mg)/1″ catheter ([1]; treatment 2 hrs (100% PG, 9% MP, 2% PP), time 67 days): 0.417 mg/1″ catheter
- Total PP released (mg)/1″ catheter ([1]; treatment 2 hrs (100% PG, 9% MP, 2% PP), time 81 days): 0.429 mg/1″ catheter
- Total PP released (mg)/1″ catheter ([1]; treatment 4 hrs (100% PG, 9% MP, 2% PP), time 1 hour): 0.007 mg/1″ catheter
- Total PP released (mg)/1″ catheter ([1]; treatment 4 hrs (100% PG, 9% MP, 2% PP), time 3 hours): 0.069 mg/1″ catheter
- Total PP released (mg)/1″ catheter ([1]; treatment 4 hrs (100% PG, 9% MP, 2% PP), time 7 hours): 0.138 mg/1″ catheter
- Total PP released (mg)/1″ catheter ([1]; treatment 4 hrs (100% PG, 9% MP, 2% PP), time 24 hours): 0.208 mg/1″ catheter
- Total PP released (mg)/1″ catheter ([1]; treatment 4 hrs (100% PG, 9% MP, 2% PP), time 4 days): 0.254 mg/1″ catheter
- Total PP released (mg)/1″ catheter ([1]; treatment 4 hrs (100% PG, 9% MP, 2% PP), time 5 days): 0.293 mg/1″ catheter
- Total PP released (mg)/1″ catheter ([1]; treatment 4 hrs (100% PG, 9% MP, 2% PP), time 6 days): 0.326 mg/1″ catheter
- Total PP released (mg)/1″ catheter ([1]; treatment 4 hrs (100% PG, 9% MP, 2% PP), time 8 days): 0.362 mg/1″ catheter
- Total PP released (mg)/1″ catheter ([1]; treatment 4 hrs (100% PG, 9% MP, 2% PP), time 11 days): 0.393 mg/1″ catheter
- Total PP released (mg)/1″ catheter ([1]; treatment 4 hrs (100% PG, 9% MP, 2% PP), time 13 days): 0.424 mg/1″ catheter
- Total PP released (mg)/1″ catheter ([1]; treatment 4 hrs (100% PG, 9% MP, 2% PP), time 15 days): 0.45 mg/1″ catheter
- Total PP released (mg)/1″ catheter ([1]; treatment 4 hrs (100% PG, 9% MP, 2% PP), time 18 days): 0.476 mg/1″ catheter
- Total PP released (mg)/1″ catheter ([1]; treatment 4 hrs (100% PG, 9% MP, 2% PP), time 22 days): 0.497 mg/1″ catheter
- Total PP released (mg)/1″ catheter ([1]; treatment 4 hrs (100% PG, 9% MP, 2% PP), time 29 days): 0.518 mg/1″ catheter
- Total PP released (mg)/1″ catheter ([1]; treatment 4 hrs (100% PG, 9% MP, 2% PP), time 36 days): 0.539 mg/1″ catheter
- Total PP released (mg)/1″ catheter ([1]; treatment 4 hrs (100% PG, 9% MP, 2% PP), time 50 days): 0.569 mg/1″ catheter
- Total PP released (mg)/1″ catheter ([1]; treatment 4 hrs (100% PG, 9% MP, 2% PP), time 67 days): 0.585 mg/1″ catheter
- Total PP released (mg)/1″ catheter ([1]; treatment 4 hrs (100% PG, 9% MP, 2% PP), time 81 days): 0.6 mg/1″ catheter
- Total PP released (mg)/1″ catheter ([1]; treatment 9 hrs (100% PG, 9% MP, 2% PP), time 1 hour): 0.082 mg/1″ catheter
- Total PP released (mg)/1″ catheter ([1]; treatment 9 hrs (100% PG, 9% MP, 2% PP), time 3 hours): 0.124 mg/1″ catheter
- Total PP released (mg)/1″ catheter ([1]; treatment 9 hrs (100% PG, 9% MP, 2% PP), time 7 hours): 0.175 mg/1″ catheter
- Total PP released (mg)/1″ catheter ([1]; treatment 9 hrs (100% PG, 9% MP, 2% PP), time 24 hours): 0.221 mg/1″ catheter
- Total PP released (mg)/1″ catheter ([1]; treatment 9 hrs (100% PG, 9% MP, 2% PP), time 4 days): 0.279 mg/1″ catheter
- Total PP released (mg)/1″ catheter ([1]; treatment 9 hrs (100% PG, 9% MP, 2% PP), time 5 days): 0.331 mg/1″ catheter
- Total PP released (mg)/1″ catheter ([1]; treatment 9 hrs (100% PG, 9% MP, 2% PP), time 6 days): 0.375 mg/1″ catheter
- Total PP released (mg)/1″ catheter ([1]; treatment 9 hrs (100% PG, 9% MP, 2% PP), time 8 days): 0.422 mg/1″ catheter
- Total PP released (mg)/1″ catheter ([1]; treatment 9 hrs (100% PG, 9% MP, 2% PP), time 11 days): 0.463 mg/1″ catheter
- Total PP released (mg)/1″ catheter ([1]; treatment 9 hrs (100% PG, 9% MP, 2% PP), time 13 days): 0.5 mg/1″ catheter
- Total PP released (mg)/1″ catheter ([1]; treatment 9 hrs (100% PG, 9% MP, 2% PP), time 15 days): 0.533 mg/1″ catheter
- Total PP released (mg)/1″ catheter ([1]; treatment 9 hrs (100% PG, 9% MP, 2% PP), time 18 days): 0.565 mg/1″ catheter
- Total PP released (mg)/1″ catheter ([1]; treatment 9 hrs (100% PG, 9% MP, 2% PP), time 22 days): 0.594 mg/1″ catheter
- Total PP released (mg)/1″ catheter ([1]; treatment 9 hrs (100% PG, 9% MP, 2% PP), time 29 days): 0.622 mg/1″ catheter
- Total PP released (mg)/1″ catheter ([1]; treatment 9 hrs (100% PG, 9% MP, 2% PP), time 36 days): 0.65 mg/1″ catheter
- Total PP released (mg)/1″ catheter ([1]; treatment 9 hrs (100% PG, 9% MP, 2% PP), time 50 days): 0.687 mg/1″ catheter
- Total PP released (mg)/1″ catheter ([1]; treatment 9 hrs (100% PG, 9% MP, 2% PP), time 67 days): 0.708 mg/1″ catheter
- Total PP released (mg)/1″ catheter ([1]; treatment 9 hrs (100% PG, 9% MP, 2% PP), time 81 days): 0.727 mg/1″ catheter
- time until perfused through the membrane and detected in the lower chamber ([2]; 0.60 mm polycarbonate membrane, 37° C.): within two hours
- PP conc [2, 3]: 0.01 mg/mL
- Total mg PP in 10.5 ml lower chamber [2, 3]: 0.105 mg
